{"source": "patent US10092592B2", "about": "“Application of cyclic dinucleotide (cGAMP) in anti-tumor field” (FUDAN UNIVERSITY, priority 2014, dated 2018)", "assay_type_in_all_cases": "in vivo", "key": {"[1]": {"test_system": "human gastric carcinoma cell line MNK-45", "test": "Subcutaneously transplanted tumor of human gastric carcinoma cell line MNK-45 in nude mice", "settings": "MNK-45 in BALB/c nude mice; for Average Tumor Weight: mean ± SD, n = 8", "procedure": "(§1) Anti-tumor effect of cGAMP (cyclized GMP-AMP) was detected by employing a tumor-bearing mouse model to test inhibition effect of cGAMP on subcutaneously transplanted tumor.\n(§2) Animals: Nude mouse BALB/c, male, with a body weight of 16-18 g, 4-6 weeks old, SPF grade, purchased from SLAC LABORATORY ANIMAL [certification number: SCXK (Shanghai) 2007-0005].\n(§3) Dose: cGAMP was injected into abdominal cavities of mice, and two dose groups were set as followed: 10 mg/kg and 40 mg/kg.\n(§4) Experimental Controls: • Negative control: brine solution • Positive control: 5-fluorouracil (5-FU), with a dose of 20 mg/kg\n(§5) Administration Method: • Administration route: administration by intraperitoneal injection • Administration frequency: once a day for 14 days • Number of each group of animals: 8\n(§6) Tumor cell lines: human gastric carcinoma cell line MNK-45, human lung adenocarcinoma cell line A549, human colorectal carcinoma cell line Lovo, human hepatocellular carcinoma cell line SMMC-7721, human prostatic carcinoma cell line PC-3 and human pancreatic carcinoma cell SW1990, purchased from the Cell Bank of the Chinese Academy of Sciences, are included in the above mentioned tumor cell lines.\n(§7) 1. establishing a tumor-bearing mouse model and allowing intervention, including: cultivating and passaging cells, collecting cells in logarithmic phase, and making into a cell suspension with a concentration of 1.0×10^7/ml, injecting 0.2 ml of the cell suspension into the nude mice through their right arm armpits to make them get a tumor, and randomly dividing the nude mice into four groups: a negative control which is a group injected with brine through intraperitoneal injection, a 5-FU group which is a group injected with 5-FU through intraperitoneal injection, a cGMP-AMP low-dose group which is a group injected with 10 mg/kg of cGMP-AMP through intraperitoneal injection, and a cGMP-AMP high-dose group which is a group injected with 40 mg/kg of cGMP-AMP through intraperitoneal injection, administrating once a day for 14 days, then killing the nude mice and weighing the wts. Of tumor and calculating a tumor inhibition rate, which is calculated by the following equation: tumor inhibition rate[1−average tumor weight of experimental groups/average tumor weight of A group]×100%, wherein the experimental groups are B, C and D groups; separately establishing 6 subcutaneously implanted tumor models: human gastric carcinoma cell line MNK-45, human lung adenocarcinoma cell line A549, human colorectal carcinoma cell line Lovo, human hepatocellular carcinoma cell line SMMC-7721, human prostatic carcinoma cell line PC-3 and human pancreatic carcinoma cell SW1990, and observing the effect of cGAMP; and\n(§8) 2. allowing statistical analysis: representing the data by x±s, processing the data with a software SPSS-10.0, analyzing by one-way ANOVA, comparing the significance of tumor weight differences among the groups, wherein the level of significance is a=0.05."}, "[2]": {"test_system": "human lung adenocarcinoma cell line A549", "test": "Subcutaneously transplanted tumor of human lung adenocarcinoma cell line A549 in nude mice", "settings": "A549 in BALB/c nude mice; for Average Tumor Weight: mean ± SD, n = 8", "procedure": "as §1, §2, §3, §4, §5, §6, §7, §8"}, "[3]": {"test_system": "human colorectal carcinoma cell line Lovo", "test": "Subcutaneously transplanted tumor of human colorectal carcinoma cell line Lovo in nude mice", "settings": "Lovo in BALB/c nude mice; for Average Tumor Weight: mean ± SD, n = 8", "procedure": "as §1, §2, §3, §4, §5, §6, §7, §8"}, "[4]": {"test_system": "human hepatocellular carcinoma cell line SMMC-7721", "test": "Subcutaneously transplanted tumor of human hepatocellular carcinoma cell line SMMC-7721 in nude mice", "settings": "SMMC-7721 in BALB/c nude mice; for Average Tumor Weight: mean ± SD, n = 8", "procedure": "as §1, §2, §3, §4, §5, §6, §7, §8"}, "[5]": {"test_system": "human prostatic carcinoma cell line PC-3", "test": "Subcutaneously transplanted tumor of human prostatic carcinoma cell line PC-3 in nude mice", "settings": "PC-3 in BALB/c nude mice; for Average Tumor Weight: mean ± SD, n = 8", "procedure": "as §1, §2, §3, §4, §5, §6, §7, §8"}, "[6]": {"test_system": "human pancreatic carcinoma cell SW1990", "test": "Subcutaneously transplanted tumor of human pancreatic carcinoma cell SW1990 in nude mice", "settings": "SW1990 in BALB/c nude mice; for Average Tumor Weight: mean ± SD, n = 8", "procedure": "as §1, §2, §3, §4, §5, §6, §7, §8"}, "ICR mice": {"test_system": "ICR mice", "test": "Acute toxicity, single tail intravenous injection", "procedure": "The materials are 20 of ICR mice, which are purchased from SLAC LABORATORY ANIMAL [certification number: SCXK (Shanghai) 2007-0005], are half male and half female, have body weights within 18-22 g, are fed with granular feedstuff and are free to find food and drink.\nThe method includes: subjecting the ICR mice to single tail intravenous injection of 10 ml/kg cGMAP based on their body weights, namely 2 g/kg, observing toxic reactions and deaths after administration within 14 days."}, "[7]": {"settings": "high dose 40 mg/kg intraperitoneal once a day for 14 days"}, "[8]": {"settings": "low dose 10 mg/kg intraperitoneal once a day for 14 days"}, "[9]": {"settings": "single tail intravenous injection 2 g/kg (10 ml/kg)"}, "[10]": {"settings": "20 mg/kg intraperitoneal once a day for 14 days"}}}
{"smiles": "Nc1nc2c(ncn2[C@@H]2O[C@@H]3COP(=O)(O)O[C@H]4[C@@H](O)[C@H](n5cnc6c(N)ncnc65)O[C@@H]4COP(=O)(O)O[C@@H]2[C@@H]3O)c(=O)[nH]1", "note": "[cGAMP, cyclized GMP-AMP]", "values": [{"measurement": "Average Tumor Inhibition Rate", "setting": "[1]; [7]", "value": 61.3, "unit": "%"}, {"measurement": "Average Tumor Weight", "setting": "[1]; [7]", "value": "1.037 ± 0.198 (g)"}, {"measurement": "Average Tumor Inhibition Rate", "setting": "[1]; [8]", "value": 38.7, "unit": "%"}, {"measurement": "Average Tumor Weight", "setting": "[1]; [8]", "value": "1.641 ± 0.175 (g)"}, {"measurement": "Average Tumor Inhibition Rate", "setting": "[2]; [7]", "value": 59.4, "unit": "%"}, {"measurement": "Average Tumor Weight", "setting": "[2]; [7]", "value": "1.151 ± 0.121 (g)"}, {"measurement": "Average Tumor Inhibition Rate", "setting": "[2]; [8]", "value": 44.9, "unit": "%"}, {"measurement": "Average Tumor Weight", "setting": "[2]; [8]", "value": "1.562 ± 0.102 (g)"}, {"measurement": "Average Tumor Inhibition Rate", "setting": "[3]; [7]", "value": 55.7, "unit": "%"}, {"measurement": "Average Tumor Weight", "setting": "[3]; [7]", "value": "1.204 ± 0.122 (g)"}, {"measurement": "Average Tumor Inhibition Rate", "setting": "[3]; [8]", "value": 36.9, "unit": "%"}, {"measurement": "Average Tumor Weight", "setting": "[3]; [8]", "value": "1.714 ± 0.137", "unit": "g"}, {"measurement": "Average Tumor Inhibition Rate", "setting": "[4]; [7]", "value": 65.2, "unit": "%"}, {"measurement": "Average Tumor Weight", "setting": "[4]; [7]", "value": "1.089 ± 0.130", "unit": "g"}, {"measurement": "Average Tumor Inhibition Rate", "setting": "[4]; [8]", "value": 38.7, "unit": "%"}, {"measurement": "Average Tumor Weight", "setting": "[4]; [8]", "value": "1.916 ± 0.174 (g)"}, {"measurement": "Average Tumor Inhibition Rate", "setting": "[5]; [7]", "value": 69.6, "unit": "%"}, {"measurement": "Average Tumor Weight", "setting": "[5]; [7]", "value": "0.932 ± 0.148", "unit": "g"}, {"measurement": "Average Tumor Inhibition Rate", "setting": "[5]; [8]", "value": 52.2, "unit": "%"}, {"measurement": "Average Tumor Weight", "setting": "[5]; [8]", "value": "1.467 ± 0.201 (g)"}, {"measurement": "Average Tumor Inhibition Rate", "setting": "[6]; [7]", "value": 67.4, "unit": "%"}, {"measurement": "Average Tumor Weight", "setting": "[6]; [7]", "value": "0.964 ± 0.109", "unit": "g"}, {"measurement": "Average Tumor Inhibition Rate", "setting": "[6]; [8]", "value": 44.8, "unit": "%"}, {"measurement": "Average Tumor Weight", "setting": "[6]; [8]", "value": "1.631 ± 0.133 (g)"}, {"measurement": "deaths within 14 days after administration", "setting": "ICR mice; [9]", "value": "no death was observed"}, {"measurement": "pathological changes in organs by naked eyes on dissection, 15th day", "setting": "ICR mice; [9]", "value": "no obvious pathological changes in organs were observed"}, {"measurement": "toxic reactions after the single tail intravenous injection", "setting": "ICR mice; [9]", "value": "normal physiological activity was observed"}, {"measurement": "maximum tolerated dose of intravenous injection MTD", "setting": "ICR mice; single tail intravenous injection, observed 14 days", "value": "not less than 2 g/kg"}]}
{"smiles": "O=c1[nH]cc(F)c(=O)[nH]1", "note": "[5-FU, 5-fluorouracil, reference compound]", "values": [{"measurement": "Average Tumor Inhibition Rate", "setting": "[1]; [10]", "value": 76.9, "unit": "%"}, {"measurement": "Average Tumor Weight", "setting": "[1]; [10]", "value": "0.619 ± 0.214 (g)"}, {"measurement": "Average Tumor Inhibition Rate", "setting": "[2]; [10]", "value": 70.3, "unit": "%"}, {"measurement": "Average Tumor Weight", "setting": "[2]; [10]", "value": "0.843 ± 0.210 (g)"}, {"measurement": "Average Tumor Inhibition Rate", "setting": "[3]; [10]", "value": 71.7, "unit": "%"}, {"measurement": "Average Tumor Weight", "setting": "[3]; [10]", "value": "0.769 ± 0.101 (g)"}, {"measurement": "Average Tumor Inhibition Rate", "setting": "[4]; [10]", "value": 72.7, "unit": "%"}, {"measurement": "Average Tumor Weight", "setting": "[4]; [10]", "value": "0.853 ± 0.082 (g)"}, {"measurement": "Average Tumor Inhibition Rate", "setting": "[5]; [10]", "value": 76.3, "unit": "%"}, {"measurement": "Average Tumor Weight", "setting": "[5]; [10]", "value": "0.728 ± 0.102 (g)"}, {"measurement": "Average Tumor Inhibition Rate", "setting": "[6]; [10]", "value": 76.8, "unit": "%"}, {"measurement": "Average Tumor Weight", "setting": "[6]; [10]", "value": "0.685 ± 0.086 (g)"}]}
